In patent US9212396B2, “Materials and methods useful for affecting tumor cell growth, migration and invasion” (The Ohio State University, priority 2009, dated 2015):

Assays:
Assay type in all cases: cell-based, human
[1] = test system: PTEN and TIMP3; experiment: Western blot of PTEN and TIMP3 in Calu-1 cells; details: Calu-1 cells after transfection
Protocol: (§1) Total proteins from NSCLC and HCC cells were extracted with radioimmuno-precipitation assay (RIPA) buffer ([…] NaCl, […] Tris-HCl, pH 7.5, 1% Triton, 0.1% SDS, 0.1% sodium deoxycholate and 1% Nonidet P40). Sample extract (50 μg) was resolved on 7.5-12% SDS-polyacrylamide gels (PAGE) using a mini-gel apparatus (Bio-Rad Laboratories) and transferred to Hybond-C extra nitrocellulose. Membranes were blocked for 1 h with 5% nonfat dry milk in Tris-buffered saline containing 0.05% Tween 20, incubated overnight with primary antibody, washed and incubated with secondary antibody, and visualized by chemiluminescence.
(§2) The following primary antibodies were used: anti-PTEN, anti-c-Jun, anti-p-c-Jun, anti-Fos, anti-p-JNK, anti-MMP3, anti-Mc1-1 (Santa Cruz), anti-TIMP3 (Millipore) anti-PI3K (BD Biosciences), anti-ERKs, anti-phospho ERKs, anti-AKT, anti-p-AKT, anti-GSK3b, anti-p-GSK3b (Ser9), anti-PAK1 anti-caspase-8,-3 and -9, anti-PARP, anti-cytochrome c (Cell signaling) and anti-MMP9, anti-FADD (Abcam), anti-1-actin antibody (Sigma). A secondary anti-rabbit or anti-mouse immunoglobulin G (IgG) antibody peroxidase conjugate (Chemicon) was used.
(§3) 2′-O-me-GFP miR (5′-[…] [SEQ ID No:17]) was used as control. Cells were grown in six well plate (1.7×10^6 per well) for 24 h and transfected 100 nmoli/L/well of 2′-O-me-oligoribonucleotides using lipofectamine 2000. […]

[2] = test system: AKT pathway; experiment: Western blots of AKT pathway in Snu-387 cells; details: Snu-387 cells after knockdown
Protocol: as §1, §2, §3

[3] = test system: Calu-1 cells; experiment: Caspase 3/7 assay of TRAIL-induced apoptosis in Calu-1 cells; details: Calu-1 cells transfected 72 h, control 2′-O-me-scrambled miR
Protocol: (§4) Cells were grown in six well plate (1.7×10^6 per well) for 24 h and transfected 100 nmoli/L/well of 2′-O-me-oligoribonucleotides using lipofectamine 2000. RNA and proteins were extracted after 72 h from the transfection.
(§5) Cells were plated in 96-well plates in triplicate and incubated at 37° C. in a 5% CO2 incubator. Super-Killer TRAIL (Alexis Biochemicals) was used for 24-48 h at 400 ng ml-1. Cell viability was examined with 3-(4,5-dimethylthiazol-2-yl)-2,5-dipheniltetrazolium bromide (MTT)-Cell Titer 96 AQueous One Solution Cell Proliferation Assay (Promega), according to the manufacturer's protocol. Metabolically active cells were detected by adding 20 μl of MTT to each well. After 1 h of incubation, the plates were analyzed in a Multilabel Counter (Bio-Rad Laboratories). Apoptosis was assessed using Annexin V-FITC apoptosis detection kits followed by flowcytometric analysis and caspase 3/7 activity. […] Statistical analysis was done using two sample t test, assuming equal variance, and P value was calculated based on two-tailed test. For detection of caspase 3/7 activity, cells were cultured in 96-well plates and treated with TRAIL 400 ng/ml and analyzed using Caspase-Glo 3/7 Assay kit (Promega) according to the manufacturer's instructions. Continuous variables are expressed as mean values±standard deviation (s.d.).

[4] = test system: PTEN and TIMP3; experiment: Western blot of PTEN and TIMP3 in Snu-387 cells; details: Snu-387 cells after transfection
Protocol: as §1, §2, §3

[5] = test system: Snu-387 cells; experiment: Caspase 3/7 assay of TRAIL-induced apoptosis in Snu-387 cells; details: Snu-387 cells transfected 72 h, control 2′-O-me-scrambled miR
Protocol: as §4, §5

[6] = test system: Snu-387 cells; experiment: Migration and invasion assay in Snu-387 cells; details: Snu-387 cells after transfection
Protocol: (§6) Transwell insert chambers with […] porous membrane (Greiner bio-one) were used for the assay. Cells were washed three times with PBS and added to the top chamber in serum-free media. The bottom chamber was filled with media containing 10% FBS. Cells were incubated for 24 h at 37° C. in a 5% CO2 humidified incubator. To quantify migrating cells, cells on the top chamber were removed by using a cotton-tipped swab, and the migrated cells were fixed in PBS, 25% glutaraldehyde and stained with Crystal Violet stain, visualized under a phase-contrast microscope, and photographed. Cristal violet-stained cells were moreover solubilized in acetic acid and methanol (1:1) and absorbance was measured at 595 nm. The results are means of three independent experiments±S.D.
(§7) H460 and SK-Hep-1 cells were placed into the top chamber of a BD Falcon HTS FluoroBlok insert with a membrane containing […] pores (BD Biosciences) in […] of serum-free Dulbecco's modified Eagle medium in triplicate. […] The fluorescence of migrated cells was quantified using a fluorometer at excitation wavelengths of 485 nm and emission wavelengths of 530 nm and expressed as arbitrary fluorescence units. Data are expressed as mean±standard error of 4 separate determinations.

[7] = test system: Calu-1 cells; experiment: Migration and invasion assay in Calu-1 cells; details: Calu-1 cells after transfection
Protocol: as §6, §7

[8] = test system: miR-221 and miR-222; experiment: qRT-PCR of miR-221 and miR-222 in Huh7 cells after anisomycin; design: dose or concentration left out as unconfirmed
Protocol: Real-time PCR was performed using a standard TaqMan PCR Kit protocol on an Applied Biosystems 7900HT Sequence Detection System (Applied Biosystems). The 10 μl PCR reaction included 0.67 μl RT product, 1 μl TaqMan Universal PCR Master Mix (Applied Biosystems), […]. The reactions were incubated in a 96-well plate at 95° C. for […], followed by 40 cycles of 95° C. for 15 s and 60° C. for 1 min. All reactions were run in triplicate. The threshold cycle (CT) is defined as the fractional cycle number at which the fluorescence passes the fixed threshold. The comparative CT method for relative quantization of gene expression (Applied Biosystems) was used to determine miRNA expression levels. The y axis represents the 2(-CT), or the relative expression of the different miRs. miRs expression was calculated relative to U44 and U48 rRNA and multiplied by 104. Experiments were carried out in triplicate for each data point, and data analysis was performed by using software (Bio-Rad).

[9] = test system: c-Jun, PTEN and TIMP3; experiment: Western blot in Huh7 cells after anisomycin
Protocol: as §1, §2

[10] = test system: H460 cells; experiment: Flow cytometric cell cycle analysis of H460 cells; details: H460 transfected cells, 72 h
[11] = test system: H460 cells; experiment: Migration and invasion assay in H460 cells; details: H460 cells after transfection
Protocol: as §6, §7

[12] = test system: AKT/ERKs pathways and Metallopeptidases; experiment: Western blots of AKT/ERKs pathways and metallopeptidases in H460 cells; details: H460 cells after forced expression
Protocol: as §1, §2

[13] = test system: PTEN and TIMP3; experiment: Western blot of PTEN and TIMP3 in Sk-Hep1 cells; details: Sk-Hep1 cells upon over-expression
Protocol: as §1, §2

[14] = test system: PTEN and TIMP3; experiment: Western blot of PTEN and TIMP3 in H460 cells; details: 72 h, compared to scrambled pre-miR
Protocol: as §1, §2

[15] = test system: PTEN and TIMP3 mRNA; experiment: qRT-PCR of PTEN and TIMP3 mRNA in H460 cells
[16] = test system: PTEN and TIMP3 3′ UTRs; experiment: 3′UTR luciferase reporter assay in MEG01 cells; details: wild type 3′ UTRs
Description: The 3′ UTR of the human PTEN and TIMP3 genes were PCR amplified using the following primers: PTEN Fw 5′-TCTAGAGACTCTGATCCAGAGAATGAACC-3′ [SEQ ID No:1] and PTEN Rw 5′-TCTAGAGTTGCCACAAGTGCAAAGGGGTAGGATGTG-3′ [SEQ ID No:2]; TIMP3 Fw 5′-TCTAGACTGGGCAAAGAAGGGTCTTTCGCAAAGC-3′ [SEQ ID No:3] and TIMP3 Rw 5′ TCTAGATTCCAATAGGGAGGAGGCTGGAGGAGTCTC-3′ [SEQ ID No:4] and cloned downstream of the […] luciferase stop codon in pGL3 control vector (Promega), giving rise to the p3′UTR-PTEN and p3′UTR-TIMP3 plasmids.
These constructs were used to generate, by inverse PCR, the p3′-UTRmut-PTEN plasmid-primers: Fw: 5′-GTTGAAAAAAGGTTGGGGGCGGGTGTCATGTATATAC-3 [SEQ ID No:5]; Rw: 5′-GTATATACATGACACCCGCCCCCAACCTTTTTTCAAC-3′[SEQ ID No:6]; p3′-UTRmut-TIMP3 plasmid-primers: Fw: 5′-GTATAATTTAAAATCATTGGGCGGCGGGAGACACTTCTGTATTTC-3′ [SEQ ID No:7]; Rw: 5′-GAAATACAGAAGTGTCTCCCGCCGCCCAATGATTTTAAATTATAC-3′ [SEQ ID No:8].
MeG01 cells were cotransfected with 1 μg of p3′UTR-PTEN or p3′UTR-TIMP3 and with p3′UTRmut-PTEN or p3′ UTR TIMP3 plasmids and 1 μg of a Renilla luciferase expression construct pRL-TK (Promega) by using Lipofectamine 2000 (Invitrogen). Cells were harvested 24 h post-transfection and assayed with Dual Luciferase Assay (Promega) according to the manufacturer's instructions. […]

[17] = test system: Sk-Hep1 cells; experiment: Migration and invasion assay in Sk-Hep1 cells; details: Sk-Hep1 cells after transfection
Protocol: as §6, §7

Row | Compound | PTEN and TIMP3 protein levels (western blot) [1] | AKT pathway (western blots) [2] | sensitivity to TRAIL-induced apoptosis (caspase 3/7 assay) [3] | PTEN and TIMP3 protein level (western blot) [4] | sensitivity to TRAIL-induced apoptosis (caspase 3/7 assay) [5] | cell migration and invasion [6] | cell migration and invasion [7] | other results
1 | 5′-gagacccagtagccagatgtagct (antisense GAGACCCAGTAGCCAGATGTAGCT; all 2'-O-methyl, backbone and T or U not given here) [2′-O-me-anti-miR-222] | increased the protein levels of PTEN and TIMP3 | inhibition of the AKT pathway | considerably sensitized these cells to TRAIL-induced apoptosis | increased the protein level of PTEN and TIMP3 | considerably sensitized these cells to TRAIL-induced apoptosis | a decrease in cell migration and invasion | a decrease in cell migration and invasion | –
2 | 5′-gaaacccagcagacaauguagcu (antisense GAAACCCAGCAGACAAUGUAGCU; all 2'-O-methyl, backbone not given here) [2′-O-me-anti-miR-221] | increased the protein levels of PTEN and TIMP3 | inhibition of the AKT pathway | considerably sensitized these cells to TRAIL-induced apoptosis | increased the protein level of PTEN and TIMP3 | considerably sensitized these cells to TRAIL-induced apoptosis | a decrease in cell migration and invasion | a decrease in cell migration and invasion | –
3 | COc1ccc(C[C@H]2NC[C@H](O)[C@H]2OC(C)=O)cc1 [anisomycin] | – | – | – | – | – | – | – | miR-221 expression increase (qRT-PCR) [8]: 80%; miR-222 expression increase (qRT-PCR) [8]: 40%; PTEN and TIMP3 expression levels ([9]; Huh7 cells after anisomycin): decreased drastically; c-Jun activation ([9]; Huh7 cells, total lysate, western blot): induced c-Jun activation
4 | miR-222: microRNA transfected (100 nM) for enforced expression (GAGACCCAGTAGCCAGATGTAGCT; listed as DNA, chemistry not given here) | – | – | – | – | – | – | – | cell cycle distribution [10]: a decrease of G1 and a corresponding increase of the S and G2-M phases; migratory and invasive capabilities [11]: significant increase; activation of AKT/ERKs pathways and metallopeptidases (western blots) [12]: induces the activation of the AKT/ERKs pathways and Metallopeptidases; PTEN and TIMP3 proteins (western blot) [13]: reduced; endogenous levels of PTEN and TIMP3 (western blot) [14]: significantly reduced the endogenous levels of PTEN and TIMP3; down-regulation of TIMP3 mRNA (qRT-PCR) ([15]; H460 cells after enforced expression): not observed; PTEN mRNA levels (qRT-PCR) ([15]; H460 cells after forced expression): strongly reduced; relative luciferase activity of PTEN and TIMP3 3′ UTR reporter constructs [16]: significantly affected luciferase expression; migratory and invasive capabilities [17]: significant increase
